Measurements: article doi:10.1101/2021.01.04.425289v1 (biorxiv, 2021)
Starred links: 1 amine or outer side, 2 acyl side, 3 side chain; linkers in the order of their positions; H or OH if unused. Residues, ends and D or L forms follow the SMILES beside them. CO = O=C([*:1])[*:2]

Target: Furin (Homo sapiens, UniProt P09958)
Test: biochemical

Furin, sequence (P09958 whole entry): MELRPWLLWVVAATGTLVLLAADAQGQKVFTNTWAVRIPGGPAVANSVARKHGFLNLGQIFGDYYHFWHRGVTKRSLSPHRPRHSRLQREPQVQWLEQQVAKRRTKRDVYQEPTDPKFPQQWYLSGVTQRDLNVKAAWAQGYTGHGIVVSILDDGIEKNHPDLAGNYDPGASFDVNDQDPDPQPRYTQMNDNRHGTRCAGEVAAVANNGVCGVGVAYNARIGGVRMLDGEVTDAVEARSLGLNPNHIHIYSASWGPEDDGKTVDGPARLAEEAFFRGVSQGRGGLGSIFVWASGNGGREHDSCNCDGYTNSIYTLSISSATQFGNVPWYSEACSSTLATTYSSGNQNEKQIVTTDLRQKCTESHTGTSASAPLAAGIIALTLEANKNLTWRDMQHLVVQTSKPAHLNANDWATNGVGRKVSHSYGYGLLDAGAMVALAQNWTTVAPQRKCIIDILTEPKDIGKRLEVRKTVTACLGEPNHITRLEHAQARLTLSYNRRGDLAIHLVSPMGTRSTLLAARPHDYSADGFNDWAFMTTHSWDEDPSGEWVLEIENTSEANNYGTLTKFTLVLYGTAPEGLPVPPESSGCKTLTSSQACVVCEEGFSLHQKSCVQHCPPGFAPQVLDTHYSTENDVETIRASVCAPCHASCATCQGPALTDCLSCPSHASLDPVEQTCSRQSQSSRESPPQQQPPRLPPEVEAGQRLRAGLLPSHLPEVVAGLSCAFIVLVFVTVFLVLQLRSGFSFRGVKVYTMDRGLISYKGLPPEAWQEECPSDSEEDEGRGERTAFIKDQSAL

| Structure (SMILES) | IC50 |
| --- | --- |
| CC(C)[C@H](NC(=O)[C@H](CCCNC(=N)N)NC(=O)N[C@@H](Cc1ccccc1)C(=O)O)C(=O)N[C@H](C=O)CCCNC(=N)N [Antipain] ({Phe-CO}-Arg-Val-Arg-aldehyde) | > 10 µM |
| CN(C)C(=O)COC(=O)Cc1ccc(OC(=O)c2ccc(NC(=N)N)cc2)cc1 [Camostat] | > 10 µM |
